Values quoted from earlier work, collected in PMC10994248 (The Oncologist, 2024).

System: FGFR2 fusion or rearranged cholangiocarcinoma
Details: after failure of first-line chemotherapy ref 20-22; cited from earlier work

Compound: CCN1C(=O)N(c2c(F)c(OC)cc(OC)c2F)Cc2cnc3[nH]c(CN4CCOCC4)cc3c21 [pemigatinib]
- Objective response rate: 36%

Compound: CCN1CCN(c2ccc(Nc3cc(N(C)C(=O)Nc4c(Cl)c(OC)cc(OC)c4Cl)ncn3)cc2)CC1 [infigratinib]
- Objective response rate: 23%
